Source: ChEMBL document CHEMBL1201862, “PubChem BioAssay data set” (2004)
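These data come from cells grown in 96-well plates and exposed to compound for 48 hours at five concentrations. Abbreviation: GI50, concentration required for 50% inhibition of growth.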 Active and inactive are the calls of the source. Cut-off read from the data, not from the text of the source: active = GI50 up to about 1.1 µM and inactive = higher.

Assays:
Assay in all cases: NCI tumour cell line growth inhibition, 48 h
[1] = system: SK-OV-3
[2] = system: OVCAR-5
[3] = system: A498
[4] = system: COLO 205
[5] = system: UACC-62
[6] = system: HOP-62
[7] = system: DU-145
[8] = system: TK-10
[9] = system: UACC-257
[10] = system: MOLT-4
[11] = system: LOX IMVI
[12] = system: SK-MEL-5
[13] = system: HT-29
[14] = system: 786-0
[15] = system: SW-620
[16] = system: MDA-MB-231
[17] = system: KM12
[18] = system: MCF7
[19] = system: SF-268
[20] = system: NCI-H23

Row | Structure (SMILES) | GI50 [1] | GI50 [2] | GI50 [3] | GI50 [4] | GI50 [5] | GI50 [6] | GI50 [7] | GI50 [8] | GI50 [9] | GI50 [10] | GI50 [11] | GI50 [12] | GI50 [13] | GI50 [14] | GI50 [15] | GI50 [16] | GI50 [17] | GI50 [18] | GI50 [19] | GI50 [20]
1 | CC(=O)OCC1(C)C(O)CCC2(C)C1CCC1CC3CC12CCC3(O)CO (stereo not given) | > 100 µM (inactive) | > 100 µM (inactive) | 0.541 µM (active) | > 100 µM (inactive) | 61.8 µM (inactive) | 36.5 µM (inactive) | 42.6 µM (inactive) | > 100 µM (inactive) | > 100 µM (inactive) | > 56.5 µM (inactive) | 44.3 µM (inactive) | > 79.4 µM (inactive) | 34.3 µM (inactive) | 44.4 µM (inactive) | > 95.7 µM (inactive) | > 100 µM (inactive) | > 100 µM (inactive) | > 100 µM (inactive) | > 80.2 µM (inactive) | 58.7 µM (inactive)
2 | CCC1(O)C(=O)OCc2c1cc1n(c2=O)Cc2cc3cc(N)ccc3nc2-1 (stereo not given) | < 0.01 µM (active) | < 0.0271 µM (active) | 0.125 µM (active) | 0.366 µM (active) | < 0.01 µM (active) | < 0.01 µM (active) | < 0.01 µM (active) | 1.9 µM (inactive) |  | < 0.01 µM (active) | < 0.01 µM (active) | < 0.0136 µM (active) | 0.0311 µM (active) | < 0.01 µM (active) | 0.0219 µM (active) | 0.516 µM (active) | 0.0593 µM (active) | < 0.01 µM (active) | < 0.01 µM (active) | < 0.01 µM (active)
3 | C[N+](C)(C)CCN[N+]1(C)CCCc2ccccc21 (stereo not given) | > 100 µM (inactive) | > 100 µM (inactive) | 17.7 µM (inactive) | 36.2 µM (inactive) | > 100 µM (inactive) | > 100 µM (inactive) | > 100 µM (inactive) | > 100 µM (inactive) | > 100 µM (inactive) | 31 µM (inactive) | > 100 µM (inactive) | > 100 µM (inactive) | > 100 µM (inactive) | 33.3 µM (inactive) | 38.5 µM (inactive) | > 100 µM (inactive) | > 100 µM (inactive) | > 100 µM (inactive) | > 100 µM (inactive) | > 100 µM (inactive)
4 | COc1cccc(OCC(=N/NC(=O)c2ccncc2)/N=C/c2cccnc2)c1 | > 100 µM (inactive) | > 100 µM (inactive) | > 100 µM (inactive) | > 100 µM (inactive) | > 100 µM (inactive) | > 100 µM (inactive) | > 100 µM (inactive) | > 100 µM (inactive) | > 100 µM (inactive) | 49.7 µM (inactive) | > 100 µM (inactive) |  | > 100 µM (inactive) | > 100 µM (inactive) | > 100 µM (inactive) | > 100 µM (inactive) | > 100 µM (inactive) | > 100 µM (inactive) | > 100 µM (inactive) | > 100 µM (inactive)
5 | C[C@]12C(=O)OC[C@H](c3ccccc3)N1C(=O)N(Cc1ccccc1)[C@@H]2CO | > 100 µM (inactive) | > 100 µM (inactive) | > 100 µM (inactive) | > 100 µM (inactive) | > 100 µM (inactive) | > 100 µM (inactive) | > 100 µM (inactive) | > 100 µM (inactive) | > 100 µM (inactive) | > 100 µM (inactive) | > 100 µM (inactive) | > 100 µM (inactive) | > 100 µM (inactive) | > 100 µM (inactive) | > 100 µM (inactive) | > 100 µM (inactive) | > 100 µM (inactive) | > 100 µM (inactive) | > 100 µM (inactive) | 
6 | CS(=O)(=O)c1ccc(C2=C(c3ccccc3)C(=O)OC2)cc1 [ROFECOXIB] | > 100 µM (inactive) | > 100 µM (inactive) | > 100 µM (inactive) | > 100 µM (inactive) | > 100 µM (inactive) | > 100 µM (inactive) | > 100 µM (inactive) | > 100 µM (inactive) | > 100 µM (inactive) | > 100 µM (inactive) | > 100 µM (inactive) | > 100 µM (inactive) |  | > 100 µM (inactive) | > 100 µM (inactive) | > 100 µM (inactive) | > 100 µM (inactive) | > 100 µM (inactive) | > 100 µM (inactive) | > 100 µM (inactive)
7 | Cc1cc(C)c2c(O)cc(-c3cccc(Cl)c3)nc2n1 | 0.293 µM (active) |  | 0.514 µM (active) | 0.175 µM (active) | 0.0681 µM (active) | 0.438 µM (active) | 0.5 µM (active) | > 41.1 µM (inactive) | 1.95 µM (inactive) | 0.161 µM (active) | 0.273 µM (active) | 0.0518 µM (active) | 0.122 µM (active) | 0.261 µM (active) | 0.0578 µM (active) | 0.256 µM (active) | 0.0933 µM (active) | 0.208 µM (active) | 1.05 µM (active) | 0.76 µM (active)
